Test results published in paper PMC7377239, “Cardiovascular Effects of Polychlorinated Biphenyls and Their Major Metabolites” (Environmental Health Perspectives, 2020).
Like-named read-outs stand apart in the source and are kept apart here.

Columns and labels:
[1] = system: iCell cardiomyocytes (human iPSC-derived cardiomyocytes); assay: High-content imaging of cytotoxicity and mitochondrial integrity in iPSC-CMs; format: cell-based; conditions: Homo sapiens; for viability at 0.01 µM / activity at 0.01 µM / viability at 0.1 µM / activity at 0.1 µM / viability at 1 µM / activity at 1 µM / viability at 10 µM / activity at 10 µM / viability at 100 µM / activity at 100 µM: Cardiomyocyte, 0.00 µM = 100.00; for viability at 0.1 µM / activity at 0.1 µM: 0.10 µM; for minimal effective concentration: iPSC-CM
Description: Details on cardiomyocyte cell culture are described in detail elsewhere ([Grimm et al. 2015b]; [Sirenko et al. 2013a]). Briefly, tissue-culture treated 384 well plates were gelatinized with 25μL per well of 0.1% (w/v) gelatin in water for 2 h at 37°C and 5% CO2 . Individual vials of cells were thawed for 4 min in a water bath maintained at 37°C. Thawed cells were resuspended in 10ml plating medium containing 1:500 (vol/vol) penicillin/streptomycin solution at room temperature (RT). Live cell counts for each cell suspension were determined by trypan blue staining and cells were further diluted to provide final cell densities of 2×10^5 viable cells/ml. Thus, 5,000 cells suspended in 25μL media were transferred per well after the gelatin solution had been discarded. Cell culture plates were rested for 30 min at RT before they were incubated for 48 h at 37°C and 5% CO2 . Then, a media exchange with 30μL of fresh maintenance medium containing 1:500 (vol/vol) penicillin/streptomycin solution was performed, and cell media were subsequently changed every 48 h for 12 d. On the experiment day, the medium was completely exchanged with either 25μL (for Ca^2+ flux assay) or 40μL (for imaging) of fresh medium.
Cytotoxicity and effects on mitochondrial integrity of various PCBs and PCB metabolites in induced pluripotent stem cell-CMs (iPSC-CMs) were assessed using high-content cellular imaging in ImageXpress® Micro Confocal (Molecular Devices) as detailed in ([Grimm et al. 2015b]). Cells in 40μL maintenance media were treated with 10μL of 5× chemical solutions to provide test chemicals at final assay concentrations ranging from 0.01 to 100μM . […] Next, sample wells were treated with 50μL equilibrated 2× concentrated staining solution (maintenance medium containing Hoechst 33342, 4μg/mL and MitoTracker™ Orange, 0.4μM ). Microplates were then incubated for 15 min at 37°C and 5% CO2 before cells were washed twice with 30μL maintenance medium. All media were aspirated and discarded, and cells were fixed with […] of a 3.7% formaldehyde solution for 15 min at 37°C and 5% […] . Fixed cells were washed 3× with 25μL PBS before image acquisition using the DAPI (Hoechst 33342) and Cy3 (MitoTracker™ Orange) filters at 10× magnification on the ImageXpress® Micro Confocal high-content confocal microscope (Molecular Devices). The multiwavelength cell scoring applications module in MetaXpress® was used to analyze acquired images.
(§1) Phenotypic responses were quantitatively assessed using concentration–response modeling as detailed elsewhere ([Sirenko et al. 2017]). Briefly, phenotypic readouts were normalized to vehicle controls and fit to a four-parameter logistic model in R studio software (version 3.1.1; R Development Core Team). Following EPA guidance on dose–response modeling, a cutoff of one standard deviation across means of vehicle control (i.e., 0.5% vol/vol DMSO in cell culture media) wells was applied to determine the point-of-departure (POD) values ([U.S. EPA 2012]). In the absence of a concentration–response, the highest tested concentration (i.e., 100μM ) was assigned as “no observable adverse effect level.” The concentration–response assessment R script, as well as templates for vehicle and concentration–response data, are available as a supplement to Sirenko et al. ([2017]). The ability of physicochemical properties to predict differences in PODs were evaluated by multiregression and mixed-effects modeling using R.

[2] = system: HUVECs; assay: High-content imaging cytotoxicity in HUVECs, 24 h; format: cell-based, human; conditions: Homo sapiens, HUVEC, 24 h, HUVECs; for viability at 0.01 µM / activity at 0.01 µM / viability at 0.1 µM / activity at 0.1 µM / viability at 1 µM / activity at 1 µM / viability at 10 µM / activity at 10 µM / viability at 100 µM / activity at 100 µM: 0.00 µM = 100.00; for viability at 0.1 µM / activity at 0.1 µM: 0.10 µM; for minimal effective concentration: top concentration 100.00 µM
Description: Similar to the cultivation of iCell®-endothelial cells, HUVEC maintenance and experimentation are detailed elsewhere ([Iwata et al. 2017]). Briefly, HUVECs were thawed, seeded, and grown in T75 tissue culture flasks in Medium 199 with EGM™-2 BulletKits™. HUVECs were incubated at regular cell culture conditions, 37°C and 5% CO2 , and passaged every 2–3 d using TrypLE™ Express. To ensure adequate endothelial function, experiments were performed with cells between passages 1 and 5.
Cytotoxicity was assessed in parallel experiments. For iCell®-endothelial cells, 384-well plates were coated with a 30μg/mL fibronectin solution ( 10μL/well ) and incubated for 2 h at RT. iCell®-endothelial cells were dissociated with TrypLE™ Express and prepared into a solution to achieve 750 cells per well and 50μL of total volume. The fibronectin solution was removed from the 384-well plate, and cells were plated. For HUVECs, similar dissociation and the same cell density were used for plating with the exclusion of the fibronectin solution. Cells were incubated at 37°C and 5% CO2 until a monolayer was formed, typically 3–5 d. 2×PCB plates were created with the requisite maintenance medium. Before treatment, the medium in the wells was exchanged to 25μL/well of fresh maintenance medium. 2×PCB chemical solutions ( […] ) were added. After 24 h incubation at 37°C and 5% CO2 , cells were stained with Hoechst 33342, MitoTracker™ Orange, and calcein AM for 20 min before replacing the staining media with FluoroBright DMEM. Cell culture plates were imaged using the ImageXpress® Micro Confocal high-content imaging system (Molecular Devices). Images were acquired at 10× magnification with DAPI, TRITC, or FITC filter (Hoechst 33342, MitoTracker™, or calcein AM, respectively). The multiwavelength cell scoring applications module in MetaXpress™ (Molecular Devices) was used to analyze the images.
as §1

[3] = 24 hr, read-out: huvec.cyto.24hr
[4] = 24 hr, read-out: huvec.mito.24hr
[5] = 24 hr, read-out: huvec.mitoint.24hr
[6] = 24 hr, read-out: huvec.nma.24hr
[7] = 24 hrs, read-out: huvec.tc.24hrs

Oc1ccc(O)c(-c2ccc(Cl)cc2)c1 [2',5'-DiOH PCB3]
viability at 0.01 µM ([1]; 1.5 h, read-out: cm.cam.90min): 104%
activity at 0.01 µM ([1]; 1.5 h, read-out: cm.mii.90min): 107%
activity at 0.01 µM ([1]; 1.5 h, read-out: cm.mito.90min): 103%
viability at 0.01 µM ([1]; 1.5 h, read-out: cm.tc.90min): 104%
viability at 0.1 µM ([1]; 1.5 h, read-out: cm.cam.90min): 94.2%
activity at 0.1 µM ([1]; 1.5 h, read-out: cm.mii.90min): 114%
activity at 0.1 µM ([1]; 1.5 h, read-out: cm.mito.90min): 93.9%
viability at 0.1 µM ([1]; 1.5 h, read-out: cm.tc.90min): 94.3%
viability at 1 µM ([1]; 1.5 h, read-out: cm.cam.90min): 100%
activity at 1 µM ([1]; 1.5 h, read-out: cm.mii.90min): 108%
activity at 1 µM ([1]; 1.5 h, read-out: cm.mito.90min): 100%
viability at 1 µM ([1]; 1.5 h, read-out: cm.tc.90min): 100%
viability at 10 µM ([1]; 1.5 h, read-out: cm.cam.90min): 101%
activity at 10 µM ([1]; 1.5 h, read-out: cm.mii.90min): 84.5%
activity at 10 µM ([1]; 1.5 h, read-out: cm.mito.90min): 99.4%
viability at 10 µM ([1]; 1.5 h, read-out: cm.tc.90min): 101%
viability at 100 µM ([1]; 1.5 h, read-out: cm.cam.90min): 0%
activity at 100 µM ([1]; 1.5 h, read-out: cm.mii.90min): 0%
activity at 100 µM ([1]; 1.5 h, read-out: cm.mito.90min): 0%
viability at 100 µM ([1]; 1.5 h, read-out: cm.tc.90min): 0%
viability at 0.01 µM ([1]; 24 h, read-out: cm.cam.24hrs): 84.9%
activity at 0.01 µM ([1]; 24 h, read-out: cm.mii.24hrs): 104%
activity at 0.01 µM ([1]; 24 h, read-out: cm.mito.24hrs): 82.4%
viability at 0.01 µM ([1]; 24 h, read-out: cm.tc.24hrs): 85.7%
viability at 0.1 µM ([1]; 24 h, read-out: cm.cam.24hrs): 100%
activity at 0.1 µM ([1]; 24 h, read-out: cm.mii.24hrs): 110%
activity at 0.1 µM ([1]; 24 h, read-out: cm.mito.24hrs): 101%
viability at 0.1 µM ([1]; 24 h, read-out: cm.tc.24hrs): 100%
viability at 1 µM ([1]; 24 h, read-out: cm.cam.24hrs): 97.7%
activity at 1 µM ([1]; 24 h, read-out: cm.mii.24hrs): 98.1%
activity at 1 µM ([1]; 24 h, read-out: cm.mito.24hrs): 94.2%
viability at 1 µM ([1]; 24 h, read-out: cm.tc.24hrs): 97.9%
viability at 10 µM ([1]; 24 h, read-out: cm.cam.24hrs): 45.5%
activity at 10 µM ([1]; 24 h, read-out: cm.mii.24hrs): 157%
activity at 10 µM ([1]; 24 h, read-out: cm.mito.24hrs): 40.2%
viability at 10 µM ([1]; 24 h, read-out: cm.tc.24hrs): 45.4%
viability at 100 µM ([1]; 24 h, read-out: cm.cam.24hrs): 0%
activity at 100 µM ([1]; 24 h, read-out: cm.mii.24hrs): 0%
activity at 100 µM ([1]; 24 h, read-out: cm.mito.24hrs): 0%
viability at 100 µM ([1]; 24 h, read-out: cm.tc.24hrs): 0%
minimal effective concentration ([1]; 1.5 h, read-out: cm.cam.90min POD): 32.4 µM
minimal effective concentration ([1]; 1.5 h, read-out: cm.mii.90min POD): 7.9 µM
minimal effective concentration ([1]; 1.5 h, read-out: cm.mito.90min POD): 12.7 µM
minimal effective concentration ([1]; 1.5 h, read-out: cm.tc.90min POD): 33.4 µM
minimal effective concentration ([1]; 24 h, read-out: cm.cam.24hrs POD): 1.84 µM
minimal effective concentration ([1]; 24 h, read-out: cm.mii.24hrs POD): 2.28 µM
minimal effective concentration ([1]; 24 h, read-out: cm.mito.24hrs POD): 0.97 µM
minimal effective concentration ([1]; 24 h, read-out: cm.tc.24hrs POD): 1.88 µM
viability at 0.01 µM [2, 3]: 84.3%
activity at 0.01 µM [2, 4]: 83.2%
activity at 0.01 µM [2, 5]: 99.1%
activity at 0.01 µM [2, 6]: 101%
viability at 0.1 µM [2, 3]: 103%
activity at 0.1 µM [2, 4]: 103%
activity at 0.1 µM [2, 5]: 112%
activity at 0.1 µM [2, 6]: 97.2%
viability at 1 µM [2, 3]: 75%
activity at 1 µM [2, 4]: 73.6%
activity at 1 µM [2, 5]: 104%
activity at 1 µM [2, 6]: 101%
viability at 10 µM [2, 3]: 57.5%
activity at 10 µM [2, 4]: 27.6%
activity at 10 µM [2, 5]: 10.3%
activity at 10 µM [2, 6]: 96.2%
viability at 100 µM [2, 3]: 2.82%
activity at 100 µM [2, 4]: 0%
activity at 100 µM [2, 5]: 0%
activity at 100 µM [2, 6]: 83.3%
minimal effective concentration ([2]; 24 hr, read-out: huvec.cyto.24hr POD): 0.12 µM
minimal effective concentration ([2]; 24 hr, read-out: huvec.mito.24hr POD): 0.13 µM
minimal effective concentration ([2]; 24 hr, read-out: huvec.mitoint.24hr POD): 3.51 µM
minimal effective concentration ([2]; 24 hr, read-out: huvec.nma.24hr POD): 8.87 µM
viability at 0.01 µM [2, 7]: 84.5%
viability at 0.1 µM [2, 7]: 103%
viability at 1 µM [2, 7]: 75%
viability at 10 µM [2, 7]: 57.7%
viability at 100 µM [2, 7]: 89.6%
minimal effective concentration ([2]; 24 hrs, read-out: huvec.tc.24hrs POD): 0.12 µM
